Test results from article PMC12495443, “Developing inhibitors of the guanosine triphosphate hydrolysis accelerating activity of Regulator of G protein Signaling-14 [drawing 1]” (The Journal of Biological Chemistry, 2025).
Read-outs that look alike come from different tables or passages of the source.

Tests used:
[1] = molecular target: T1, human RGS14 RGS-box (wild-type) (Homo sapiens, UniProt O43566); assay: Transcreener GDP RGScreen fluorescence polarization assay of RGS14 RGS-box GAP activity on Gαi1(DM); type: biochemical; conditions: for Ratio (RGS14 pIC50 / RGS12 pIC50): values > 1.0 reflect RGS14 selectivity; for RGS14 pIC50 / IC50: Transcreener GDP RGScreen
T1 construct: human RGS14 RGS-box (aa 46–195 of UniProt O43566); host or cells: E. coli
T1 sequence (O43566 46-195): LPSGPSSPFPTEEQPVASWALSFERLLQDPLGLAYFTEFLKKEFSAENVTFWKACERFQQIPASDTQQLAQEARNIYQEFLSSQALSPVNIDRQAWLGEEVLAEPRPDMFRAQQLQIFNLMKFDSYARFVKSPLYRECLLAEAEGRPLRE
From the text: (§1) We previously described work with BellBrook Labs creating the Transcreener GDP RGScreen fluorescence polarization assay of steady-state GTP hydrolysis, leveraging a double point-mutant in the Gα enzyme to make GTP hydrolysis, rather than GDP (product) release, the rate-limiting step for multiple rounds of GTP conversion ([57], [59]). […] Titrating inputs of the double point-mutant (“DM”) Gαi1 and RGS-box recombinant proteins (Fig. S2, B and C) established a robust, medium-throughput assay for evaluating potential RGS14 and RGS12 inhibitors, with “assay quality” Z′ scores ([60]) above 0.76 for each target (Fig. S2D).
(§2) Reagents and protocols for the fluorescence anisotropy-based Transcreener GDP RGScreen assay using a rate-altered, double point-mutant, recombinant Gαi1 protein have been extensively described previously ([43], [44]); reactions were always performed so that total GTP converted over the time course was consistently less than 10% of reaction maximum input. Specific methods for its application in assessing RGS14 and RGS12 GAP activity are summarized as follows. Open-reading frames (ORFs) encoding wild-type versions of the human RGS14 RGS-box (aa 46–195 of UniProt O43566) and human RGS12 RGS-box (aa 695–843 of UniProt O14924) were each sub-cloned in-frame with an N-terminal hexahistidine (His6) expression tag in the plasmid pET30a, expressed in E. coli cultures, and then purified by nickel-nitriloacetate (Ni-NTA) and size-exclusion (Superdex 200) column chromatographies by GenScript using previously described methods ([35]). These recombinant His6-tag fusion proteins were stored at −80 °C in storage buffer (150 mM NaCl, 50 mM Tris-HCl pH 8.0, 10% glycerol) before thawing and use. Cysteine-less versions were similarly produced by ORF site-directed mutagenesis: for RGS14, codons for cysteine residues 47 and 130 (numbered as in PDB id 2JNU) were replaced with serine codons; for RGS12, codons for cysteines 4, 51, 78, and 134 (numbered in relation to PDB id 2EBZ) were replaced with serine codons. Use of Transcreener GDP-detection reagents to assess compound inhibition of Naegleria fowleri Gα7 protein GTPase activity ([83]) has previously been described ([84]).

[2] = molecular target: T2, human RGS12 RGS-box (wild-type) (Homo sapiens, UniProt O14924); assay: Transcreener GDP RGScreen fluorescence polarization assay of RGS12 RGS-box GAP activity on Gαi1(DM); type: biochemical; conditions: wild-type RGS12 RGS-box GAP activity, Gαi1(DM); for IC50: read-out: RGS12 pIC50 (converted)
T2 construct: human RGS12 RGS-box (aa 695–843 of UniProt O14924); host or cells: E. coli
T2 sequence (O14924 695-843): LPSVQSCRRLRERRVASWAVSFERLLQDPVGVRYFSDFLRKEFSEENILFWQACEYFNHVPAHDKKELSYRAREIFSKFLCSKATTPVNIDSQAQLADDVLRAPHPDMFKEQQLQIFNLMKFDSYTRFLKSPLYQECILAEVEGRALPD
From the text: as §1, §2

[3] = wild-type RGS14 RGS-box GAP activity, Gαi1(DM)
[4] = wild-type RGS14 RGS-box GAP activity, Gαi1(DM), read-out: RGS14 pIC50 (converted)

| Compound | Ratio (RGS14 pIC50 / RGS12 pIC50) [1] | RGS14 pIC50 [1, 3] | RGS12 pIC50 [2] | IC50 ([1]; wild-type RGS14 RGS-box, read-out: IC50 against RGS14 RGS-box GAP activity) | IC50 [2] | IC50 [1, 4] |
| --- | --- | --- | --- | --- | --- | --- |
| Cc1ccc(C2=Nn3c(COc4ccc(Cl)cc4)nnc3SC2CC(=O)O)cc1 (centres unmarked) [Z90276194] | 1.00 | 4.21 | 4.21 | – | – | – |
| O=C(O)C[C@@H]1Sc2nnc(COc3ccc(Cl)cc3)n2N=C1c1ccccc1 [Z90276197, 2-{3-[(4-chlorophenoxy)methyl]-6-phenyl-5H-[1,2,4]triazolo[3,4-b][1,3,4]thiadiazin-7-yl}acetic acid] | 0.94 | – | – | 81 µM | 42.7 µM | – |
| O=C(O)C[C@@H]1Sc2nnc(-c3ccco3)n2N=C1c1ccccc1 [Z90276389] | 1.00 | – | – | – | 83.2 µM | 79.4 µM |
| O=C(O)C[C@@H]1Sc2nnc(-c3ccco3)n2N=C1c1ccc(F)cc1 [Z90276391] | 0.96 | – | – | – | 61.7 µM | 93.3 µM |
| O=C(O)CC1Sc2nnc(Cc3ccc(Br)cc3)n2N=C1c1ccc(Cl)cc1 (centres unmarked) [Z90276771] | 0.91 | 4.53 | 4.96 | – | – | – |
| C[C@H]1Sc2nnc(Cc3ccc(Br)cc3)n2N=C1c1ccc(NS(C)(=O)=O)cc1 [Z90276813] | 0.85 | – | – | – | 13.5 µM | 72.4 µM |
| COc1ccc(-c2nnc3n2N=C(c2ccc(NC(C)=O)cc2)[C@@H](C)S3)cc1OC [Z90277200] | 0.96 | – | – | – | 18.6 µM | 30.2 µM |
| O=C(O)C[C@@H]1Sc2nnc(CCC3CCCCC3)n2N=C1c1ccccc1 [Z90277285] | 0.96 | – | – | – | 24 µM | 38 µM |
| CSc1nnc2n1N=C(c1ccc(NC(=O)C(C)C)cc1)[C@H](C)S2 [Z90277842] | 0.94 | – | – | – | 61.7 µM | 107 µM |
| C1CC[C@H]2Sc3nnc([C@H]4CCCO4)n3N=C2C1 [Z90278035] | 0.93 | – | – | – | 30.2 µM | 61.7 µM |
| O=C(O)CC1Sc2nnc(C3CCCO3)n2N=C1c1ccc(Cl)cc1 (centres unmarked) [Z90278051] | 1.07 | – | – | – | 107 µM | 56.2 µM |
| COc1cccc(OCc2nnc3n2N=C(c2ccccc2)[C@H](CC(=O)O)S3)c1 [Z90278437] | 1.00 | – | – | – | 174 µM | 170 µM |
| CCOc1ccccc1-c1nnc2n1N=C(c1ccc(NC(=O)C(C)C)cc1)[C@@H](C)S2 [Z90278674] | 0.92 | – | – | – | 44.7 µM | 102 µM |
| COc1ccc(OCc2nnc3n2N=C(c2cc(C)n(-c4nccs4)c2C)CS3)cc1 [Z667824954] | 0.87 | – | – | – | 64.6 µM | 219 µM |
| COc1ccc(OCc2nnc3n2N=C(c2cccc(N4CCCC4=O)c2)CS3)cc1 [Z667824974] | 0.87 | – | – | – | 224 µM | 646 µM |
| CC(Sc1n[nH]c2nc3ccccc3n12)C(=O)c1c(F)cc(F)cc1F (centres unmarked) [Z1098346193, 2-(2,4,5,7-tetraaza-tricyclo[6.4.0.0²,⁶]dodeca-1(12),3,5,8,10-pentaen-3-ylsulfanyl)-1-(2,4,6-trifluorophenyl)propan-1-one] | – | – | – | – | 63.1 µM | ~200 µM |
| CCC(Sc1nc2ccc(OC)cc2[nH]1)C(=O)c1ccc(OC)cc1 (centres unmarked) [Z5032180767] | – | – | – | – | – | > 1000 µM |
| CCC(Sc1nc2ccc(OC)cc2[nH]1)C(=O)c1ccc(Cl)cc1 (centres unmarked) [Z5032180785] | – | – | – | – | – | > 1000 µM |
| COc1ccc2nc(SC(C)C(=O)c3ccccc3C(F)(F)F)[nH]c2c1 (centres unmarked) [Z5032180788] | – | – | – | – | – | > 1000 µM |
| COC(=O)C1Sc2nnc(COc3ccc(OC)cc3)n2N=C1c1cccc(N2CCCC2=O)c1 (centres unmarked) [Z7976707565] | 1.14 | – | – | – | 100 µM | 27.5 µM |
| COC(=O)C1Sc2nnc(COc3ccc(F)cc3)n2N=C1c1cc2ccccc2o1 (centres unmarked) [Z8201263931] | 0.91 | – | – | – | 40.7 µM | 100 µM |
